Assay results from publication PMC11995724, “Antibiotic target discovery by integrated phenotypic and activity-based profiling of electrophilic fragments” (Cell chemical biology, 2025).
Structures can show the parent of a compound that is named as a salt.

experiment: in vitro; settings: human, hek293t cells

Row | SMILES | viability at 48 h, 25 µM [%]
1 | COc1ccc(CNC(=O)C(C)Cl)cc1OC (centres unmarked) [6-P10, 2-chloro-N-[(3,4-dimethoxyphenyl)methyl]propanamide] | 113
2 | CC(Cl)C(=O)Nc1ccc(C2CC(=O)NC(=O)N2)cc1 (centres unmarked) [5-D19, 2-chloro-N-[4-(2,6-dioxo-1,3-diazinan-4-yl)phenyl]propanamide] | 92.5
3 | C=CC(=O)NCc1ccc(-n2ccnc2)cc1 [1-M18, N-{[4-(1H-imidazol-1-yl)phenyl]methyl}prop-2-enamide] | 90.9
4 | C=CC(=O)NCc1ccccc1-n1nc(C)cc1C [3-P19, N-{[2-(3,5-dimethyl-1H-pyrazol-1-yl)phenyl]methyl}prop-2-enamide] | 59.1
5 | Cc1ccc(-n2c(C)cc(C(=O)CCl)c2C)cc1C [10-B14, 2-chloro-1-[1-(3,4-dimethylphenyl)-2,5-dimethyl-1H-pyrrol-3-yl]ethan-1-one] | 0.754
6 | C=CC(=O)N1CCC(C(=O)N2CCC(C(=O)NC3CC3)CC2)CC1 [2-D10, N-cyclopropyl-1-[1-(prop-2-enoyl)piperidine-4-carbonyl]piperidine-4-carboxamide] | 76.9
7 | N#CC(=Cc1cnn(Cc2ccccc2)c1)C(=O)Nc1nccs1 [9-M03, 3-(1-benzyl-1H-pyrazol-4-yl)-2-cyano-N-(1,3-thiazol-2-yl)prop-2-enamide] | 111
8 | C=CC(=O)NCC1(S(=O)(=O)CC)CC1 [3-O13, N-{[1-(ethanesulfonyl)cyclopropyl]methyl}prop-2-enamide] | 48.1
9 | Cc1cc(C)c(NC(=O)C(C#N)=Cc2ccccc2C)c(C)c1 [8-E13, 2-cyano-3-(2-methylphenyl)-N-(2,4,6-trimethylphenyl)prop-2-enamide] | 37.8
10 | N#CC(=Cc1cc2ccccc2o1)C(=O)NCc1ccco1 [9-O08, 3-(1-benzofuran-2-yl)-2-cyano-N-[(furan-2-yl)methyl]prop-2-enamide] | 114
11 | N#CC(=Cc1ccsc1)C(=O)Nc1cccc2ccccc12 [9-M09, 2-cyano-N-(naphthalen-1-yl)-3-(thiophen-3-yl)prop-2-enamide] | 120
12 | Cc1cc(C(=O)CCl)c(C)n1-c1ccccc1 [10-L20, 2-chloro-1-(2,5-dimethyl-1-phenyl-1H-pyrrol-3-yl)ethan-1-one] | 1.11
13 | CC(C)NC(=O)C(C#N)=Cc1ccc(-c2ccc([N+](=O)[O-])cc2)o1 [8-I19, 2-cyano-3-[5-(4-nitrophenyl)furan-2-yl]-N-(propan-2-yl)prop-2-enamide] | 93
14 | C=CC(=O)Nc1cc(NC(=O)c2ccc([N+](=O)[O-])o2)ccc1F [3-J04, N-[4-fluoro-3-(prop-2-enamido)phenyl]-5-nitrofuran-2-carboxamide] | 0.415
15 | CC(Cl)C(=O)N(Cc1cnn(C)c1)c1ccc(F)cc1 (centres unmarked) [6-P11, 2-chloro-N-(4-fluorophenyl)-N-[(1-methyl-1H-pyrazol-4-yl)methyl]propanamide] | 114
16 | C=CC(=O)N(C)CC(=O)N1CCC2(CC1)CC2c1nnc(C(C)C)o1 (centres unmarked) [2-N22, N-methyl-N-(2-oxo-2-{1-[5-(propan-2-yl)-1,3,4-oxadiazol-2-yl]-6-azaspiro[2.5]octan-6-yl}ethyl)prop-2-enamide] | 84.6
17 | C=CC(=O)NCc1ccnc(OC2CCOCC2)c1 [2-B17, N-{[2-(oxan-4-yloxy)pyridin-4-yl]methyl}prop-2-enamide] | 69.9
18 | NS(=O)(=O)c1cccc(N2C(=O)C=CC2=O)c1 [10-I05, 3-(2,5-dioxo-2,5-dihydro-1H-pyrrol-1-yl)benzene-1-sulfonamide] | 93.4
19 | CCCNC(=O)C(C#N)=Cc1cnc2c(C)cccn12 [9-N14, 2-cyano-3-{8-methylimidazo[1,2-a]pyridin-3-yl}-N-propylprop-2-enamide] | 120
20 | Cc1cc(C=C(C#N)C(=O)NCc2ccco2)cc(C)c1O [8-J16, 2-cyano-N-[(furan-2-yl)methyl]-3-(4-hydroxy-3,5-dimethylphenyl)prop-2-enamide] | 114
21 | C=CC(=O)Nc1ccc2nc(O)n(C3CC3)c2c1 [2-K16, N-(1-cyclopropyl-2-hydroxy-1H-1,3-benzodiazol-6-yl)prop-2-enamide] | 83.3
22 | C=CC(=O)Nc1ccnc(OC2CCCCC2)c1 [2-A04, N-[2-(cyclohexyloxy)pyridin-4-yl]prop-2-enamide] | 0.76
23 | Cc1ccc(C=C(C#N)C(=O)NCc2ccco2)o1 [8-P19, 2-cyano-N-[(furan-2-yl)methyl]-3-(5-methylfuran-2-yl)prop-2-enamide] | 95.3
24 | N#CC(=Cc1cccc(Cl)c1Cl)C(=O)NCCc1ccccc1 [8-J06, 2-cyano-3-(2,3-dichlorophenyl)-N-(2-phenylethyl)prop-2-enamide] | 10.1
25 | CCOC(=O)c1c(C)[nH]c(C(=O)CCl)c1C [10-J20, ethyl 5-(2-chloroacetyl)-2,4-dimethyl-1H-pyrrole-3-carboxylate] | 1.66
26 | C=CC(=O)NCCNC(=O)C1CC12CCSCC2 (centres unmarked) [2-O06, N-[2-({6-thiaspiro[2.5]octan-1-yl}formamido)ethyl]prop-2-enamide] | 88.3
27 | NC(=O)COc1ccc(C(=O)CCl)cc1 [10-M07, 2-[4-(2-chloroacetyl)phenoxy]acetamide] | 38.6

Row | SMILES | viability at 48 h, 25 µM [%]
28 | O=C(CCl)NC(c1ccccc1)c1ccc(Cl)cc1 (centres unmarked) [4-G04, 2-chloro-N-[(4-chlorophenyl)(phenyl)methyl]acetamide] | -0.0119
29 | C=CC(=O)NCCc1nc(C)cs1 [2-D05, N-[2-(4-methyl-1,3-thiazol-2-yl)ethyl]prop-2-enamide] | 70.3
30 | C=CC(=O)NC(C)c1cc2cnccc2o1 (centres unmarked) [1-B08, N-(1-{furo[3,2-c]pyridin-2-yl}ethyl)prop-2-enamide] | 80.6
31 | COCCn1c(N)c(C(=O)CCl)c(=O)[nH]c1=O [10-N12, 6-amino-5-(2-chloroacetyl)-1-(2-methoxyethyl)-1,2,3,4-tetrahydropyrimidine-2,4-dione] | 103
32 | O=C(CCl)N1c2ccccc2Sc2ccc(Cl)cc21 [4-N07, 2-chloro-1-(2-chloro-10H-phenothiazin-10-yl)ethan-1-one] | 122
33 | Cc1cc(C(=O)CCl)c(C)n1-c1ccc(Cl)cc1 [10-H18, 2-chloro-1-[1-(4-chlorophenyl)-2,5-dimethyl-1H-pyrrol-3-yl]ethan-1-one] | 0.517
34 | CCN(Cc1ccc(Cl)s1)C(=O)CCl [6-M11, 2-chloro-N-[(5-chlorothiophen-2-yl)methyl]-N-ethylacetamide] | 0.655
35 | C=CC(=O)N(CCO)c1ccc(C(=O)O)cc1 [1-M10, 4-[N-(2-hydroxyethyl)prop-2-enamido]benzoic acid] | 96.4
36 | O=C(CCl)c1ccncc1F [10-I09, 2-chloro-1-(3-fluoropyridin-4-yl)ethan-1-one hydrochloride] | 85
37 | C=CC(=O)Nc1ccc(C(=O)NCC2CSCCS2)cc1 (centres unmarked) [2-K21, N-[(1,4-dithian-2-yl)methyl]-4-(prop-2-enamido)benzamide] | 91.9
38 | CC(Cl)C(=O)Nc1ccc(SC(F)F)cc1 (centres unmarked) [4-L09, 2-chloro-N-{4-[(difluoromethyl)sulfanyl]phenyl}propanamide] | 71.9
39 | C=CC(=O)N1CCCCC1 [1-C12, 1-(piperidin-1-yl)prop-2-en-1-one] | 98.4
40 | O=C(CCl)N1CCN(S(=O)(=O)c2ccc([N+](=O)[O-])cc2)CC1 [4-J07, 2-chloro-1-[4-(4-nitrobenzenesulfonyl)piperazin-1-yl]ethan-1-one] | -0.414
41 | C=CC(=O)NCc1ccc(C(=O)N2CCCOC(C)(C)C2)cc1 [3-N06, N-{[4-(2,2-dimethyl-1,4-oxazepane-4-carbonyl)phenyl]methyl}prop-2-enamide] | 70.7
42 | CCc1ccc(NC(=O)C(C#N)=Cc2ccc(F)c(C#N)c2)cc1 [8-M20, 2-cyano-3-(3-cyano-4-fluorophenyl)-N-(4-ethylphenyl)prop-2-enamide] | 23.7
43 | C=CC(=O)N(Cc1cn(C)nc1C)c1ccc2c(c1)OCCO2 [1-P13, N-(2,3-dihydro-1,4-benzodioxin-6-yl)-N-[(1,3-dimethyl-1H-pyrazol-4-yl)methyl]prop-2-enamide] | 81.5
44 | Cc1nc(C(NC(=O)CCl)c2ccccc2)no1 (centres unmarked) [7-F08, 2-chloro-N-[(5-methyl-1,2,4-oxadiazol-3-yl)(phenyl)methyl]acetamide] | 1.04
45 | Cn1cccc1C(=O)CCl [10-B04, 2-chloro-1-(1-methyl-1H-pyrrol-2-yl)ethan-1-one] | 64.6
46 | CC(Cl)C(=O)NC(C)c1cnn(CC2CCC2)c1 (centres unmarked) [5-L15, 2-chloro-N-{1-[1-(cyclobutylmethyl)-1H-pyrazol-4-yl]ethyl}propanamide] | 108
47 | C=CC(=O)NCc1ccnn1C [1-H20, N-[(1-methyl-1H-pyrazol-5-yl)methyl]prop-2-enamide] | 58
48 | N#CC(C(=O)CCl)=C1NC2=C(CCc3ccccc32)S1 [10-N10, 4-chloro-2-{1H,2H,4H,5H-naphtho[1,2-d][1,3]thiazol-2-ylidene}-3-oxobutanenitrile] | 12.3
49 | COc1ccc(NC(=O)C(C#N)=Cc2cnc3c(C)cccn23)cc1 [9-L03, 2-cyano-N-(4-methoxyphenyl)-3-{8-methylimidazo[1,2-a]pyridin-3-yl}prop-2-enamide] | 111
50 | COc1ccc(C2CCCN2C(=O)CCl)cc1OC (centres unmarked) [6-M03, 2-chloro-1-[2-(3,4-dimethoxyphenyl)pyrrolidin-1-yl]ethan-1-one] | 0.75
51 | CCOc1ccc(C(=O)C(C)Cl)cc1 (centres unmarked) [10-G06, 2-chloro-1-(4-ethoxyphenyl)propan-1-one] | 89.3
52 | CC(C)NC(=O)C(C#N)=Cc1cccs1 [8-H15, 2-cyano-N-(propan-2-yl)-3-(thiophen-2-yl)prop-2-enamide] | 117
53 | CNC(=O)c1ccc(C2CCCCN2C(=O)C(C)Cl)n1C (centres unmarked) [7-N15, 5-[1-(2-chloropropanoyl)piperidin-2-yl]-N,1-dimethyl-1H-pyrrole-2-carboxamide] | 97.6
